In the supplement of paper PMC11451515:

What was measured:
Settings in all cases: 48 h
SEM cells [1] = test: cell viability relative to DMSO control; higher = less cytotoxic
In short: (§1)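 NOMO1 or SEM cells were plated at 500 cells/well and P12-Ichikawa cells at 1000 cells/well in 1536-well plates (5 μl), after each leukemia line had been adapted for at least four passages in each medium. Pin dosing delivered library compounds in DMSO at 11 threefold concentrations, 47 μM to 0.79 nM. CellTiter-Glo One luminescence was read after 48 h at 37°C. Viability is reported as a per-plate percentage of DMSO wells, with cell-free wells as background.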

NOMO1 [2] = test: as above
In short: as §1

P12-Ichikawa [3] = test: as above
In short: as §1

SEM cells [4] = test: AUC of viability dose-response curve (% viability x log10 dose units); higher = less sensitive
In short: (§2)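 Area under the curve was integrated by trapezoidal rule from a log-logistic fit of normalised viability, with curves exceeding full viability scaled and quality-control failures removed. The fit had four parameters over log10 doses. Viability came from CellTiter-Glo One luminescence, normalised per plate to DMSO and cell-free wells, after leukemia cells adapted to each medium (500 or 1000 cells/well, 1536-well plates) were exposed to library compounds in DMSO for 48 h at 37°C. The 11 threefold doses ran from 47 μM to 0.79 nM.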

NOMO1 [5] = test: as above
In short: as §2

P12-Ichikawa [6] = test: as above
In short: as §2

c1ccc2c(CN3CCNCC3)cccc2c1
cell viability [%]
Settings	NOMO1 [2]	P12-Ichikawa [3]	SEM cells [1]
HPLM + 10% dialyzed FBS, 0.000781 µM	99.6	111	102
HPLM + 10% dialyzed FBS, 0.00234 µM	113	112	102
HPLM + 10% dialyzed FBS, 0.00702 µM	124	113	115
HPLM + 10% dialyzed FBS, 0.0211 µM	106	108	108
HPLM + 10% dialyzed FBS, 0.0632 µM	112	113	100
HPLM + 10% dialyzed FBS, 0.19 µM	121	112	126
HPLM + 10% dialyzed FBS, 0.569 µM	113	109	108
HPLM + 10% dialyzed FBS, 1.71 µM	112	116	107
HPLM + 10% dialyzed FBS, 5.12 µM	104	118	102
HPLM + 10% dialyzed FBS, 15.4 µM	99.7	111	98.8
HPLM + 10% dialyzed FBS, 46.1 µM	93.7	35	98.8
RPMI 5 mM glucose + 10% FBS, 0.000781 µM	103	106	85.5
RPMI 5 mM glucose + 10% FBS, 0.00234 µM	124	104	104
RPMI 5 mM glucose + 10% FBS, 0.00702 µM	115	102	98.6
RPMI 5 mM glucose + 10% FBS, 0.0211 µM	117	112	107
RPMI 5 mM glucose + 10% FBS, 0.0632 µM	117	111	97.4
RPMI 5 mM glucose + 10% FBS, 0.19 µM	126	107	101
RPMI 5 mM glucose + 10% FBS, 0.569 µM	115	112	97.1
RPMI 5 mM glucose + 10% FBS, 1.71 µM	133	111	103
RPMI 5 mM glucose + 10% FBS, 5.12 µM	110	112	92.7
RPMI 5 mM glucose + 10% FBS, 15.4 µM	99.9	110	101
RPMI 5 mM glucose + 10% FBS, 46.1 µM	51.6	26.4	105
RPMI 5 mM glucose + 10% dialyzed FBS, 0.000781 µM	108	107	97.7
RPMI 5 mM glucose + 10% dialyzed FBS, 0.00234 µM	113	108	106
RPMI 5 mM glucose + 10% dialyzed FBS, 0.00702 µM	106	109	126
RPMI 5 mM glucose + 10% dialyzed FBS, 0.0211 µM	117	107	124
RPMI 5 mM glucose + 10% dialyzed FBS, 0.0632 µM	115	114	128
RPMI 5 mM glucose + 10% dialyzed FBS, 0.19 µM	122	115	122
RPMI 5 mM glucose + 10% dialyzed FBS, 0.569 µM	129	117	106
RPMI 5 mM glucose + 10% dialyzed FBS, 1.71 µM	122	110	131
RPMI 5 mM glucose + 10% dialyzed FBS, 5.12 µM	116	118	95.7
RPMI 5 mM glucose + 10% dialyzed FBS, 15.4 µM	91.7	119	103
RPMI 5 mM glucose + 10% dialyzed FBS, 46.1 µM	64.9	41.1	84

AUC of viability dose-response curve
Settings	HPLM + 10% dialyzed FBS	RPMI 5 mM glucose + 10% FBS	RPMI 5 mM glucose + 10% dialyzed FBS
NOMO1 [5]	462	455	456
SEM cells [4]	465	473	454

C[C@H](c1ccc(F)cc1CCCC(=O)O)N(c1cc(F)ccc1F)[S+](=O)([O-])c1ccc(Cl)cc1
AUC of viability dose-response curve
Settings	NOMO1 [5]	P12-Ichikawa [6]	SEM cells [4]
HPLM + 10% dialyzed FBS	452	454	462
RPMI 5 mM glucose + 10% FBS	455	449	465
RPMI 5 mM glucose + 10% dialyzed FBS	450	447	461

COc1cc2cc(c1Cl)N(C)C(=O)C[C@H](OC(=O)C(C)C)[C@]1(C)O[C@@H]1[C@H](C)[C@@H]1C[C@@](O)(NC(=O)O1)[C@H](OC)/C=C/C=C(\C)C2
cell viability [%]
Settings	NOMO1 [2]	P12-Ichikawa [3]	SEM cells [1]
HPLM + 10% dialyzed FBS, 0.000781 µM	55.5	8.03	27.9
HPLM + 10% dialyzed FBS, 0.00234 µM	53.1	10.4	26
HPLM + 10% dialyzed FBS, 0.00702 µM	53.3	10	28.5
HPLM + 10% dialyzed FBS, 0.0211 µM	44.3	9.14	22.6
HPLM + 10% dialyzed FBS, 0.0632 µM	49	10.7	15.2
HPLM + 10% dialyzed FBS, 0.19 µM	41.8	8.31	9.09
HPLM + 10% dialyzed FBS, 0.569 µM	42.1	8.37	7.19
HPLM + 10% dialyzed FBS, 1.71 µM	41.8	6.69	6.56
HPLM + 10% dialyzed FBS, 5.12 µM	34.9	6.57	5.59
HPLM + 10% dialyzed FBS, 15.4 µM	35.7	5.07	4.17
HPLM + 10% dialyzed FBS, 46.1 µM	13	2.08	2.54
RPMI 5 mM glucose + 10% FBS, 0.000781 µM	32.8	9.26	21.3
RPMI 5 mM glucose + 10% FBS, 0.00234 µM	29.5	12.1	24.2
RPMI 5 mM glucose + 10% FBS, 0.00702 µM	33.7	11.2	21.4
RPMI 5 mM glucose + 10% FBS, 0.0211 µM	30.8	11.8	12.7
RPMI 5 mM glucose + 10% FBS, 0.0632 µM	27.3	11	9.24
RPMI 5 mM glucose + 10% FBS, 0.19 µM	23.5	9.9	8.39
RPMI 5 mM glucose + 10% FBS, 0.569 µM	24	8.75	7.82
RPMI 5 mM glucose + 10% FBS, 1.71 µM	19	8.41	6.35
RPMI 5 mM glucose + 10% FBS, 5.12 µM	22.4	6.23	4.76
RPMI 5 mM glucose + 10% FBS, 15.4 µM	26.4	5.36	4.03
RPMI 5 mM glucose + 10% FBS, 46.1 µM	9.73	2	2.1
RPMI 5 mM glucose + 10% dialyzed FBS, 0.000781 µM	37.2	17.5	24.3
RPMI 5 mM glucose + 10% dialyzed FBS, 0.00234 µM	40.4	18.1	24
RPMI 5 mM glucose + 10% dialyzed FBS, 0.00702 µM	36.2	16.5	20.2
RPMI 5 mM glucose + 10% dialyzed FBS, 0.0211 µM	32.1	14.6	14.5
RPMI 5 mM glucose + 10% dialyzed FBS, 0.0632 µM	22.9	14.3	8.42
RPMI 5 mM glucose + 10% dialyzed FBS, 0.19 µM	22.2	12.9	5.55
RPMI 5 mM glucose + 10% dialyzed FBS, 0.569 µM	25.4	12.2	5.76
RPMI 5 mM glucose + 10% dialyzed FBS, 1.71 µM	22.4	10.2	5.03
RPMI 5 mM glucose + 10% dialyzed FBS, 5.12 µM	25.9	8.98	4.42
RPMI 5 mM glucose + 10% dialyzed FBS, 15.4 µM	27.8	8.07	3.49
RPMI 5 mM glucose + 10% dialyzed FBS, 46.1 µM	11.8	2.84	1.84

AUC of viability dose-response curve
Settings	HPLM + 10% dialyzed FBS	RPMI 5 mM glucose + 10% FBS	RPMI 5 mM glucose + 10% dialyzed FBS
P12-Ichikawa [6]	37.9	42.6	59.7
SEM cells [4]	66.3	51.6	49.3

O=C(O)/C=C/c1ccc(Cn2ccnc2)cc1
AUC of viability dose-response curve
Settings	NOMO1 [5]	P12-Ichikawa [6]	SEM cells [4]
HPLM + 10% dialyzed FBS	469	438	466
RPMI 5 mM glucose + 10% FBS	438	436	471
RPMI 5 mM glucose + 10% dialyzed FBS	460	464	473

C/C(O)=C(\C#N)C(=O)Nc1ccc(C(F)(F)F)cc1
AUC of viability dose-response curve
Settings	NOMO1 [5]	P12-Ichikawa [6]	SEM cells [4]
HPLM + 10% dialyzed FBS	457	454	437
RPMI 5 mM glucose + 10% FBS	470	455	430
RPMI 5 mM glucose + 10% dialyzed FBS	436	432	431
